Here are results for 14 compounds from publication PMC13181761, “New Analogs of the Compstatin Family of Clinical Complement Inhibitors with Low Picomolar Target Affinity” (Journal of Medicinal Chemistry, 2026).

The target of the test is T1, human C3b (Homo sapiens, UniProt P01024).
T1 construct: purchased Complement Technology, Tyler, TX, USA
Kind of test: SPR kinetic binding to immobilized human C3b. The settings on record: for fold affinity drop / weaker affinity compared with Cp01: K D ratio vs Cp01. Here is the method:
Experiments were conducted at 25 °C in HBST buffer (10 mM HEPES, 150 mM NaCl, and 0.05% Tween-20, pH 7.4; XanTec bioanalytics). Human C3b (Complement Technology, Tyler, TX, USA) was immobilized via amine-reactive coupling. […] Individual peptide samples were injected for 120 s, followed by a 180 s dissociation phase. […] Signals from the reference cell and buffer blank injections were subtracted within each dilution series to correct for buffer effects and injection artifacts. Data were fitted to a Langmuir 1:1 binding model to calculate association (k a) and dissociation (k d) rate constants, and the equilibration constant K D is calculated based on the equation: K D = k d/k a. In the case of Cp40 derivatives and Cp60, a single-cycle approach was used for kinetic analysis by injecting 5 increasing concentrations of each compound (0.5-40 nM) consecutively without a regeneration period in between injections. Individual injections within a cycle were 120 s long with a 5 min dissociation phase between injections. […] Analog Cp40 was included in each experimental series as a reference and internal control. Signals from the reference cell and buffer blank injections were subtracted to correct for buffer effects and injection artifacts. Kinetic data were processed in BiaEvaluation (Cytiva) using single-cycle evaluation by global fitting each data set to a Langmuir 1:1 binding model. The reported kinetic parameters (Tables and ) indicate the mean values and standard deviations of three independent experiments. SPR sensorgrams are provided in the Supporting Information.
A general note: Surface plasmon resonance follows binding to a sensor surface in real time, without labels.

[1] abbreviates: SPR, 1:1 Langmuir fit, average of 3 independent experiments, SD in brackets.
Where [2] appears, read: SPR, 1:1 Langmuir fit, average of 3 independent experiments, SD in brackets, read-out: K D, affinity hC3b.
[3] abbreviates: SPR screening at 2 and 1 μM, series up to 16 μM, read-out: affinity hC3b (class symbol N.B./W.B.).

Read-outs that look alike come from different tables or passages of the source. Where a SMILES comes first, the peptide text is derived from it. Bridges are numbered along the chain shown (N, C = ends). [ ]: non-standard residue; d: D form. Trp(1-Me) = Cn1cc(C[C@H](N)C(=O)O)c2ccccc21; Bta = N[C@@H](Cc1csc2ccccc12)C(=O)O; Nva(3-Et) = CCC(CC)[C@H](N)C(=O)O; NMeI = CC[C@H](C)[C@H](NC)C(=O)O; aIle = CC[C@@H](C)[C@H](N)C(=O)O; Orn = NCCC[C@H](N)C(=O)O; Sar = CNCC(=O)O Bounds are passed on as bounds.

T1 sequence (P01024 23-667 limits assumed): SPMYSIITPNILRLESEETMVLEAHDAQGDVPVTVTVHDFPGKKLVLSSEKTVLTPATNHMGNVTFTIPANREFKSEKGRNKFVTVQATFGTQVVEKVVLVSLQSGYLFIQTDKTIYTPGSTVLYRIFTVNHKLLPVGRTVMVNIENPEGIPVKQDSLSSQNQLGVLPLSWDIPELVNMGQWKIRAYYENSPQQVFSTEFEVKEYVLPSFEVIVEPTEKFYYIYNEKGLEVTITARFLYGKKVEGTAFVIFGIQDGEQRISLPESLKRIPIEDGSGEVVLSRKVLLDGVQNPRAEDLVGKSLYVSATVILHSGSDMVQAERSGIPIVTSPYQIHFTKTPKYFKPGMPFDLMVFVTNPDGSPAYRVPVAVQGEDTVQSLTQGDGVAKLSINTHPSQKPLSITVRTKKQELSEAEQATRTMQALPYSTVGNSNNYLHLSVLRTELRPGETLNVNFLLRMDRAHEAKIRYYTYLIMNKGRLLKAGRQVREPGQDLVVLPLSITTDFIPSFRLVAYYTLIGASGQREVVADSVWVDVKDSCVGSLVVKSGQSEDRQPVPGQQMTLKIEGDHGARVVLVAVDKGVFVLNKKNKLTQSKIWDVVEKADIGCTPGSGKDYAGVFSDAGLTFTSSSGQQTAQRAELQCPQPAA
T1 sequence (P01024 749-1663 partner limits assumed): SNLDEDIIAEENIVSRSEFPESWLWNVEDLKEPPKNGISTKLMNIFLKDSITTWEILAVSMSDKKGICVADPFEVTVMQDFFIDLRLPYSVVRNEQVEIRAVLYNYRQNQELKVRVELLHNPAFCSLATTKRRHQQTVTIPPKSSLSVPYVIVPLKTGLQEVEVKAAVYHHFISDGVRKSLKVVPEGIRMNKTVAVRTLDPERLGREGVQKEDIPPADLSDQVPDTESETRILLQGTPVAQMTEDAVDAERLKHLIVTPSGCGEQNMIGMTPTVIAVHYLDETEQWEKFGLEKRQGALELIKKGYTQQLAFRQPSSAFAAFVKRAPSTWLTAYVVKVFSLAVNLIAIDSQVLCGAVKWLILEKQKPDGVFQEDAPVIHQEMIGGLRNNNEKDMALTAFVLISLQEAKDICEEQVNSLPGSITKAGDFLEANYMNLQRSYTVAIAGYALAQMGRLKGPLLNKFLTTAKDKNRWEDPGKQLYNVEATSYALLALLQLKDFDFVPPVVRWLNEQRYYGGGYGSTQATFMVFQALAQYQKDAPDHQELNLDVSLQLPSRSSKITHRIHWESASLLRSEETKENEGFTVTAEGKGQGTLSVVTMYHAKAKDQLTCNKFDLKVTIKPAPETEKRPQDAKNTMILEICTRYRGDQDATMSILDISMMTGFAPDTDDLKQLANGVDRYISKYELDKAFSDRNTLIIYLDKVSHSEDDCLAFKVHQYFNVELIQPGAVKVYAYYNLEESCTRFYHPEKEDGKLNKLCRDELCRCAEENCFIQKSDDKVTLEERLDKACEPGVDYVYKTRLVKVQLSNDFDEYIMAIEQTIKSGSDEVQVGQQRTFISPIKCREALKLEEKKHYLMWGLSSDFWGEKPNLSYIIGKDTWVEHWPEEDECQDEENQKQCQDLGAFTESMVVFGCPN

`CC[C@H](C)[C@H](NC(C)=O)C(=O)N[C@H]1CSSC[C@@H](C(=O)N[C@H](C(N)=O)[C@@H](C)O)NC(=O)[C@H](CCCNC(=N)N)NC(=O)[C@H](Cc2c[nH]cn2)NC(=O)[C@H](C)NC(=O)CNC(=O)[C@H](Cc2c[nH]c3ccccc23)NC(=O)[C@H](CCC(=O)O)NC(=O)[C@H](CCC(N)=O)NC(=O)[C@H](Cc2c[nH]c3ccccc23)NC(=O)[C@H](C(C)C)NC1=O` [Cp01-Asp6Glu] (Ac-ICVWQEWGAHRCT-NH2; disulfide 2-12): the “fold affinity drop / weaker affinity compared with Cp01” value was 2 fold. Further, under setting [1], the “k a, affinity hC3b” value is given as 3.8(1.6) 10^5 M^–1 s^–1 and the “k d, affinity hC3b” value is 18(2) 10^–2 s^–1. In addition, the Kd under setting [2] is 528 nM.
`CC[C@H](C)[C@H](NC(C)=O)C(=O)N[C@H]1CSSC[C@@H](C(=O)N[C@H](C(N)=O)[C@@H](C)O)NC(=O)[C@H](CCCNC(=N)N)NC(=O)[C@H](Cc2c[nH]cn2)NC(=O)[C@H](C)NC(=O)CNC(=O)[C@H](Cc2c[nH]c3ccccc23)NC(=O)[C@H](CC(=O)O)NC(=O)[C@H](CCCCN)NC(=O)[C@H](Cc2c[nH]c3ccccc23)NC(=O)[C@H](C(C)C)NC1=O` [Cp01-Gln5Lys] (Ac-ICVWKDWGAHRCT-NH2; disulfide 2-12): the “binding to C3b (result in words)” value (SPR) is listed as “no detectable target binding”. Further, the Kd under setting [3] was greater than 2000 nM.
For `CC[C@H](C)[C@H](NC(C)=O)C(=O)N[C@H]1CSSC[C@@H](C(=O)N[C@H](C(N)=O)[C@@H](C)O)NC(=O)[C@H](CCCNC(=N)N)NC(=O)[C@H](Cc2c[nH]cn2)NC(=O)[C@H](C)NC(=O)CNC(=O)[C@H](Cc2c[nH]c3ccccc23)NC(=O)[C@H](CC(=O)O)NC(=O)[C@H](CCCN)NC(=O)[C@H](Cc2c[nH]c3ccccc23)NC(=O)[C@H](C(C)C)NC1=O` [Cp01-Gln5Orn] (Ac-ICVW[Orn]DWGAHRCT-NH2; disulfide 2-12) the same measures were “no detectable target binding” and greater than 2000 nM.
Turning to `CC[C@H](C)[C@H](NC(C)=O)C(=O)N[C@H]1CSSC[C@@H](C(=O)N[C@H](C(N)=O)[C@@H](C)O)NC(=O)[C@H](CCCNC(=N)N)NC(=O)[C@H](Cc2c[nH]cn2)NC(=O)[C@H](C)NC(=O)CNC(=O)[C@H](Cc2c[nH]c3ccccc23)NC(=O)[C@H](CC(N)=O)NC(=O)[C@H](CCC(N)=O)NC(=O)[C@H](Cc2c[nH]c3ccccc23)NC(=O)[C@H](C(C)C)NC1=O` [Cp01-Asp6Asn] (Ac-ICVWQNWGAHRCT-NH2; disulfide 2-12), under setting [1], the “k a, affinity hC3b” value is 5.4(1.5) 10^5 M^–1 s^–1 and the “k d, affinity hC3b” value is listed as 11(1) 10^–2 s^–1. The Kd under setting [2] came out at 219 nM.
In the case of `CC[C@H](C)[C@H](NC(C)=O)C(=O)N[C@H]1CSSC[C@@H](C(=O)N[C@H](C(N)=O)[C@@H](C)O)NC(=O)[C@H](CCCNC(=N)N)NC(=O)[C@H](Cc2c[nH]cn2)NC(=O)[C@H](C)NC(=O)CNC(=O)[C@H](Cc2c[nH]c3ccccc23)NC(=O)[C@H](CC(=O)O)NC(=O)[C@H](CCC(N)=O)NC(=O)[C@H](Cc2c[nH]c3ccccc23)NC(=O)[C@H](CC(C)C)NC1=O` [Cp01-Val3Leu] (Ac-ICLWQDWGAHRCT-NH2; disulfide 2-12), under setting [1], the “k a, affinity hC3b” value is recorded as 2.0(0.5) 10^5 M^–1 s^–1 and the “k d, affinity hC3b” value is listed as 11(1) 10^–2 s^–1. In addition, the Kd under setting [2] worked out at 552 nM.
Turning to `CC[C@H](C)[C@H](NC(C)=O)C(=O)N[C@H]1CSSC[C@@H](C(=O)N[C@H](C(N)=O)[C@@H](C)O)NC(=O)[C@H](CCCNC(=N)N)NC(=O)[C@H](Cc2c[nH]cn2)NC(=O)[C@H](C)NC(=O)CNC(=O)[C@H](Cc2c[nH]c3ccccc23)NC(=O)[C@H](CC(=O)O)NC(=O)[C@H](CCC(N)=O)NC(=O)[C@H](Cc2cn(C)c3ccccc23)NC(=O)[C@H]([C@@H](C)CC)NC1=O` [Cp05-Val3Ile] (Ac-ICI[Trp(1-Me)]QDWGAHRCT-NH2; disulfide 2-12), the Kd under setting [2] is 1.5 nM. Besides, the koff (SPR, read-out: dissociation rate k d) was 0.002 s⁻¹.
`CC[C@H](C)[C@H](NC(C)=O)C(=O)N[C@H]1CSSC[C@@H](C(=O)N[C@H](C(N)=O)[C@@H](C)O)NC(=O)[C@H](CCCNC(=N)N)NC(=O)[C@H](Cc2c[nH]cn2)NC(=O)[C@H](C)NC(=O)CNC(=O)[C@H](Cc2csc3ccccc23)NC(=O)[C@H](CC(=O)O)NC(=O)[C@H](CCC(N)=O)NC(=O)[C@H](Cc2c[nH]c3ccccc23)NC(=O)[C@H](C(C)C)NC1=O` [Cp01-Trp7Bta] (Ac-ICVWQD[Bta]GAHRCT-NH2; disulfide 2-12): the Kd under setting [3] was greater than 16000 nM. In addition, the “binding to C3b (result in words)” value (SPR, listed as W7Bta) is recorded as “strongly impaired affinity”.
`CC[C@H](C)[C@H](NC(C)=O)C(=O)N[C@H]1CSSC[C@@H](C(=O)N[C@H](C(N)=O)[C@@H](C)O)NC(=O)[C@H](CCCNC(=N)N)NC(=O)[C@H](Cc2c[nH]cn2)NC(=O)[C@H](C)NC(=O)CNC(=O)[C@H](Cc2c[nH]c3ccccc23)NC(=O)[C@H](CC(=O)O)NC(=O)[C@H](CCC(N)=O)NC(=O)[C@H](Cc2c[nH]c3ccccc23)NC(=O)[C@H](C)NC1=O` [Cp01-Val3Ala]: under setting [3], the Kd was greater than 2000 nM.
The same measure, in the same setting: then `CC[C@H](C)[C@H](NC(C)=O)C(=O)N[C@H]1CSSC[C@@H](C(=O)N[C@H](C(N)=O)[C@@H](C)O)NC(=O)[C@H](CCCNC(=N)N)NC(=O)[C@H](Cc2c[nH]cn2)NC(=O)[C@H](C)NC(=O)CNC(=O)[C@H](Cc2c[nH]c3ccccc23)NC(=O)[C@H](CC(=O)O)NC(=O)[C@H](CCC(N)=O)NC(=O)[C@H](Cc2c[nH]c3ccccc23)NC(=O)[C@H](Cc2ccccc2)NC1=O` [Cp01-Val3Phe], with greater than 2000 nM.
Still for that read-out and setting: then `CC[C@H](C)[C@H](NC(C)=O)C(=O)N[C@H]1CSSC[C@@H](C(=O)N[C@H](C(N)=O)[C@@H](C)O)NC(=O)[C@H](CCCNC(=N)N)NC(=O)[C@H](Cc2c[nH]cn2)NC(=O)[C@H](C)NC(=O)CNC(=O)[C@H](Cc2c[nH]c3ccccc23)NC(=O)[C@H](CC(=O)O)NC(=O)[C@H](CCC(N)=O)NC(=O)[C@H](Cc2c[nH]c3ccccc23)NC(=O)[C@H](Cc2c[nH]c3ccccc23)NC1=O` [Cp01-Val3Trp], with greater than 2000 nM.
In the case of `CC[C@@H](C)[C@@H]1NC(=O)[C@@H](NC(=O)[C@@H](NC(=O)[C@H](N)Cc2ccc(O)cc2)[C@@H](C)CC)CSSC[C@@H](C(=O)N(C)[C@H](C(N)=O)[C@@H](C)CC)NC(=O)[C@H](CCCNC(=N)N)NC(=O)[C@H](Cc2c[nH]cn2)NC(=O)[C@H](C)NC(=O)CN(C)C(=O)[C@H](Cc2c[nH]c3ccccc23)NC(=O)[C@H](CC(=O)O)NC(=O)[C@H](CCC(N)=O)NC(=O)[C@H](Cc2cn(C)c3ccccc23)NC1=O` [Cp40-Val3aIle] (H-[dY]IC[aIle][Trp(1-Me)]QDW[Sar]AHRC[NMeI]-NH2; disulfide 3-13), under setting [1], the “k a, affinity hC3b” value is listed as 4.6(0.7) 10^5 M^–1 s^–1 and the “k d, affinity hC3b” value is reported as 0.7(0.3) 10^–2 s^–1. Besides, the Kd under setting [2] was found to be 15.6 nM.
For `CCC(CC)[C@@H]1NC(=O)[C@@H](NC(=O)[C@@H](NC(=O)[C@H](N)Cc2ccc(O)cc2)[C@@H](C)CC)CSSC[C@@H](C(=O)N(C)[C@H](C(N)=O)[C@@H](C)CC)NC(=O)[C@H](CCCNC(=N)N)NC(=O)[C@H](Cc2c[nH]cn2)NC(=O)[C@H](C)NC(=O)CN(C)C(=O)[C@H](Cc2c[nH]c3ccccc23)NC(=O)[C@H](CC(=O)O)NC(=O)[C@H](CCC(N)=O)NC(=O)[C@H](Cc2cn(C)c3ccccc23)NC1=O` [Cp40-Val3Dea] (H-[dY]IC[Nva(3-Et)][Trp(1-Me)]QDW[Sar]AHRC[NMeI]-NH2; disulfide 3-13), under setting [1], the “k a, affinity hC3b” value is given as 4.3(0.7) 10^5 M^–1 s^–1 and the “k d, affinity hC3b” value is 0.6(0.1) 10^–2 s^–1.
With `CC[C@H](C)[C@H](NC(C)=O)C(=O)N[C@H]1CSSC[C@@H](C(=O)N[C@H](C(N)=O)[C@@H](C)O)NC(=O)[C@H](CO)NC(=O)[C@H](Cc2c[nH]cn2)NC(=O)[C@H](C)NC(=O)CNC(=O)[C@H](Cc2c[nH]c3ccccc23)NC(=O)[C@H](CC(=O)O)NC(=O)[C@H](CCC(N)=O)NC(=O)[C@H](Cc2c[nH]c3ccccc23)NC(=O)[C@H](C(C)C)NC1=O` [Cp01-Arg11Ser] (Ac-ICVWQDWGAHSCT-NH2; disulfide 2-12), the “fold affinity drop / weaker affinity compared with Cp01” value is listed as roughly 2 fold. Under setting [1], the “k a, affinity hC3b” value is recorded as 3.3(1.2) 10^5 M^–1 s^–1 and the “k d, affinity hC3b” value is 16(3) 10^–2 s^–1. For the same compound, the Kd under setting [2] was determined as 529 nM.
For `CC[C@H](C)[C@H](NC(C)=O)C(=O)N[C@H]1CSSC[C@@H](C(=O)N[C@H](C(N)=O)[C@@H](C)O)NC(=O)[C@H](CCCCN)NC(=O)[C@H](Cc2c[nH]cn2)NC(=O)[C@H](C)NC(=O)CNC(=O)[C@H](Cc2c[nH]c3ccccc23)NC(=O)[C@H](CC(=O)O)NC(=O)[C@H](CCC(N)=O)NC(=O)[C@H](Cc2c[nH]c3ccccc23)NC(=O)[C@H](C(C)C)NC1=O` [Cp01-Arg11Lys] (Ac-ICVWQDWGAHKCT-NH2; disulfide 2-12) the same measures were roughly 2 fold, 3.0(0.8) 10^5 M^–1 s^–1, 15(2) 10^–2 s^–1 and 502 nM.
